Bounds are passed on as bounds.

Sequence of cGAS (Q8N884 whole entry): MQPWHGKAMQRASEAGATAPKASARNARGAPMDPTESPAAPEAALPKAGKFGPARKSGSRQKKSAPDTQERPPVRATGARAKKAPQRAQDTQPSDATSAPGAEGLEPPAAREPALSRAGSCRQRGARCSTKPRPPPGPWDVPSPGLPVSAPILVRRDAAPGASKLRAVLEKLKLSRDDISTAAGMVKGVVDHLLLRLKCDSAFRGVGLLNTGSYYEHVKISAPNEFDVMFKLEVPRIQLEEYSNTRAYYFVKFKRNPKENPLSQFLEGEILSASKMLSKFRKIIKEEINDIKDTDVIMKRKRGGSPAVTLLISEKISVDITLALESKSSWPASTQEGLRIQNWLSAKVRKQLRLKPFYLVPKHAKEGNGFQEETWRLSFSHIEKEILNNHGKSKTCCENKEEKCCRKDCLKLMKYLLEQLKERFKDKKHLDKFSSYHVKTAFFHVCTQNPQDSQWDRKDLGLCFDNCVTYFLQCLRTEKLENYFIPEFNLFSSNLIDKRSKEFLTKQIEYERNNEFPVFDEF

For one assay, the system named is IFN induction in cGAMP-stimulated THP1 cells. As to the kind of experiment: cGAMP stimulated counter cell assay in THP1-Dual cells (THP1(cGAMP) IC50). It is filed as cell-based, human. The note with it: Homo sapiens, THP-1; Table 1; counter assay, 10 μM cGAMP stimulation; read-out: THP(cGAMP) IC50. In a few lines:
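THP1-Dual cells (5000/well, RPMI/10% FCS) stimulated with cGAMP to activate the pathway directly downstream of cGAS; compounds at 8 concentrations, top 10 μM, ~1:5 steps, 1% DMSO. After 18 h at 37 °C, Lucia luciferase luminescence read; IC50 from 4-parameter logistic fit normalised to low and high controls.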
In general, IC50 refers to the concentration that inhibits the measured activity by half. Consider `C[C@H]1CN2CC[C@@H]1n1c(nc3ccccc31)O[C@H]1C[C@@H](C(=O)O)N(C1)c1nc(nc3c1oc1ccccc13)CCCCCC2=O` [Example 1.19], for which the IC50 worked out at 11000 nM.
`O=C(O)[C@@H]1C[C@H]2CN1c1nc(nc3c1oc1ccccc13)CCOCCCC(=O)N1CCC(CC1)n1c(nc3cc(F)ccc31)O2` [Example 1.03]: the IC50 is more than 10000 nM.
In the case of `C[C@@H]1CC(=O)N2CCC(CC2)n2c(nc3ccccc32)O[C@H]2C[C@@H](C(=O)O)N(C2)c2nc(nc3c2oc2ccccc23)CCCO1` [Example 7.01], the IC50 was 3500 nM.
Same read-out and setting: for `C[C@@H]1CN2CC[C@H]1n1c(nc3cc(Cl)ccc31)O[C@H]1C[C@@H](C(=O)O)N(C1)c1nc(nc3c1oc1ccccc13)CCOCCCC2=O` [Example 1.01] the value was more than 10000 nM; for `CC1CCc2nc(c3oc4ccccc4c3n2)N2C[C@H](C[C@H]2C(=O)O)Oc2nc3cc(Cl)ccc3n2[C@H]2CCN(C[C@@H]2C)C(=O)CCO1` (stereo partly drawn) [Example 1.20], more than 10000 nM.
On the same count and under the same terms, in the case of `C[C@H]1CN2CC[C@@H]1n1c(nc3cc(Cl)ccc31)O[C@H]1C[C@@H](C(=O)O)N(C1)c1nc(nc3c1oc1ccccc13)C(F)(F)CCCCCC2=O` [Example 1.12] it was 3600 nM; in that of `C[C@H]1CN2CC[C@@H]1n1c(nc3cc(Cl)ccc31)O[C@H]1C[C@@H](C(=O)O)N(C1)c1nc(nc3c1oc1cc(F)ccc13)CCCCOCC2=O` [Example 1.09], more than 10000 nM; in that of `C[C@H]1CN2CC[C@@H]1n1c(nc3ccccc31)O[C@H]1C[C@@H](C(=O)O)N(C1)c1nc(nc3c1oc1cc(F)ccc13)C(F)(F)CCCCCC2=O` [Example 1.14], 18000 nM.
Consider `C[C@H]1CN2CC[C@@H]1n1c(nc3ccccc31)O[C@H]1C[C@@H](C(=O)O)N(C1)c1nc(nc3c1oc1ccccc13)CCCCCCC2=O` (racemic) [Example 1.24], for which the IC50 was determined as 11000 nM.
Regarding `O=C(O)[C@@H]1C[C@H]2CN1c1nc(nc3c1oc1ccccc13)OCCCCOC(=O)N1CCC(CC1)n1c(nc3ccccc31)O2` [Example 11.01], the IC50 was more than 1000 nM.

Still in this assay, the particulars now being: Table 1; selectivity for cGAS-inhibition.
Regarding `C[C@H]1CN2CC[C@@H]1n1c(nc3ccccc31)O[C@H]1C[C@@H](C(=O)O)N(C1)c1nc(nc3c1oc1ccccc13)CCCCCC2=O` [Example 1.19], the “Ratio THP(cGAMP) IC50/THP(vir) IC50” value is listed as 277.
Take `O=C(O)[C@@H]1C[C@H]2CN1c1nc(nc3c1oc1ccccc13)CCOCCCC(=O)N1CCC(CC1)n1c(nc3cc(F)ccc31)O2` [Example 1.03]: the “Ratio THP(cGAMP) IC50/THP(vir) IC50” value is given as more than 90.
As for `C[C@@H]1CC(=O)N2CCC(CC2)n2c(nc3ccccc32)O[C@H]2C[C@@H](C(=O)O)N(C2)c2nc(nc3c2oc2ccccc23)CCCO1` [Example 7.01], the “Ratio THP(cGAMP) IC50/THP(vir) IC50” value was found to be 23.
Still for that read-out and setting: for `C[C@@H]1CN2CC[C@H]1n1c(nc3cc(Cl)ccc31)O[C@H]1C[C@@H](C(=O)O)N(C1)c1nc(nc3c1oc1ccccc13)CCOCCCC2=O` [Example 1.01] the value was more than 253; for `CC1CCc2nc(c3oc4ccccc4c3n2)N2C[C@H](C[C@H]2C(=O)O)Oc2nc3cc(Cl)ccc3n2[C@H]2CCN(C[C@@H]2C)C(=O)CCO1` (stereo partly drawn) [Example 1.20], more than 773.
As for `C[C@H]1CN2CC[C@@H]1n1c(nc3cc(Cl)ccc31)O[C@H]1C[C@@H](C(=O)O)N(C1)c1nc(nc3c1oc1ccccc13)C(F)(F)CCCCCC2=O` [Example 1.12], the “Ratio THP(cGAMP) IC50/THP(vir) IC50” value is recorded as 1620.
Regarding `C[C@H]1CN2CC[C@@H]1n1c(nc3cc(Cl)ccc31)O[C@H]1C[C@@H](C(=O)O)N(C1)c1nc(nc3c1oc1cc(F)ccc13)CCCCOCC2=O` [Example 1.09], the “Ratio THP(cGAMP) IC50/THP(vir) IC50” value came out at 4305.
`C[C@H]1CN2CC[C@@H]1n1c(nc3ccccc31)O[C@H]1C[C@@H](C(=O)O)N(C1)c1nc(nc3c1oc1cc(F)ccc13)C(F)(F)CCCCCC2=O` [Example 1.14]: the “Ratio THP(cGAMP) IC50/THP(vir) IC50” value was 11920.
As to `C[C@H]1CN2CC[C@@H]1n1c(nc3ccccc31)O[C@H]1C[C@@H](C(=O)O)N(C1)c1nc(nc3c1oc1ccccc13)CCCCCCC2=O` (racemic) [Example 1.24], the “Ratio THP(cGAMP) IC50/THP(vir) IC50” value was determined as 65.
For `O=C(O)[C@@H]1C[C@H]2CN1c1nc(nc3c1oc1ccccc13)OCCCCOC(=O)N1CCC(CC1)n1c(nc3ccccc31)O2` [Example 11.01], the “Ratio THP(cGAMP) IC50/THP(vir) IC50” value is listed as more than 56.

For the next assay, the target named is cGAS (Homo sapiens, UniProt Q8N884). The assay is described as follows: Human cGAS enzyme assay (hcGAS IC50, in vitro), cGAMP formation by RapidFire MS. It is filed as biochemical. Set-up: HumancGAS (amino acid 1-522) with an N-terminal 6×-His-tag and SUMO-tag; 6xHis (N); SUMO (N); made in house; host or cells: E. coli BL21(DE3) pLysS. As to conditions: Table 1; 45 bp dsDNA-activated enzyme. The method, then:
6.1 Method: Human cGAS Enzyme Assay (hcGAS IC50 (In Vitro))
Human cGAS enzyme was incubated in the presence of a 45 base pair double stranded DNA to activate the enzyme and GTP and ATP as substrates. Compound activity was determined by measuring the effect of compounds on the formation of the product of the enzyme reaction, cGAMP, which is measured by a mass spectrometry method.
HumancGAS (amino acid 1-522) with an N-terminal 6×-His-tag and SUMO-tag was expressed in E. coli BL21(DE3) pLysS (Novagen) cells for 16 h at 18° C. Cells were lysed in buffer containing 25 mM Tris (pH 8), 300 mM NaCl, 10 mM imidazole, 10% glycerol, protease inhibitor cocktail (cOmplete™, EDTA-free, Roche) and DNase (5 μg/mL). […] Purified protein was concentrated to 1.7 mg/mL and stored at −80° C.
Compounds were delivered in 10 mM DMSO solution, serially diluted and transferred to the 384 well assay plate (Greiner #781201) using an Echo acoustic dispenser. Typically, 8 concentrations were used with the highest concentration at 10 μM in the final assay volume followed by ^˜1:5 dilution steps. DMSO concentration was set to 1% in the final assay volume. The 384 well assay plate contained 22 test compounds (column 1-22), and DMSO in column 23 and 24.
After the compound transfer, 15 μL of the enzyme-DNA-working solution (12 nM cGAS, 0.32 μM 45base pair DNA in assay buffer, 10 mM Tris pH 7.5/10 mM KCl/5 mM MgCl2/1 mM DTT) were added to each well from column 1-23 via a MultiDrop Combi dispenser. In column 24, 15 μl of assay buffer without enzyme/DNA were added as a low control.
The plates were then pre-incubated for 60 min at room temperature.
Following that, 10 μL of GTP (ThermoFisher #R0461)-ATP (Promega #V915B) mix in assay buffer were added to the assay plate (columns 1-24, 30 μM final concentration each) using a Multidrop Combi.
The plates were incubated again for 90 min at room temperature.
Following the incubation, the reaction was stopped by 80 μL of 0,1% formic acid in assay buffer containing 5 nM cyclic-di-GMP (Sigma #SML1228) used as internal standard for the mass spectrometry. The total volume/well was 105 μL.
The plates were centrifuged at 4000 rpm, 4° C., for 5 min.
The RapidFire autosampler was coupled to a binary pump (Agilent 1290) and a Triple Quad 6500 (ABSciex, Toronto, Canada). […] Aspiration time: 250 ms; Load time: 3000 ms; Elute time: 3000 ms; Wash volume: 500 μL.
The MS was operated in positive ion mode with HESI ion source, with a source temperature of 550 C, curtain gas=35, gas 1=65, and gas 2=80. Unit mass resolution in SRM mode. The following transitions and MS parameters (DP: declustering potential and CE: collision energy) for cGAMP and DicGMP were determined:
Internal standard: cyclic-di-GMP at 690.1/540, DP=130, CE=30.
The formation of cGAMP was monitored and evaluated as ratio to cyclic-di-GMP.
Data Evaluation and Calculation:
For data evaluation and calculation, the measurement of the low control was set as 0% control and the measurement of the high control was set as 100% control. The IC50 values were calculated using the standard 4 parameter logistic regression formula. Calculation: [y=(a−d)/(1+(x/c)^b)+d], a=low value, d=high value; x=conc M; c=1C50 M; b=slope
Take `C[C@H]1CN2CC[C@@H]1n1c(nc3ccccc31)O[C@H]1C[C@@H](C(=O)O)N(C1)c1nc(nc3c1oc1ccccc13)CCCCCC2=O` [Example 1.19]: it took 3.8 nM to reach half-maximal inhibition (IC50).
The compound `O=C(O)[C@@H]1C[C@H]2CN1c1nc(nc3c1oc1ccccc13)CCOCCCC(=O)N1CCC(CC1)n1c(nc3cc(F)ccc31)O2` [Example 1.03] showed an IC50 of 5.6 nM.
`C[C@@H]1CC(=O)N2CCC(CC2)n2c(nc3ccccc32)O[C@H]2C[C@@H](C(=O)O)N(C2)c2nc(nc3c2oc2ccccc23)CCCO1` [Example 7.01] gave an IC50 of 8.8 nM.
As for `C[C@@H]1CN2CC[C@H]1n1c(nc3cc(Cl)ccc31)O[C@H]1C[C@@H](C(=O)O)N(C1)c1nc(nc3c1oc1ccccc13)CCOCCCC2=O` [Example 1.01], the IC50 was 14 nM.
Same read-out and setting: for `CC1CCc2nc(c3oc4ccccc4c3n2)N2C[C@H](C[C@H]2C(=O)O)Oc2nc3cc(Cl)ccc3n2[C@H]2CCN(C[C@@H]2C)C(=O)CCO1` (stereo partly drawn) [Example 1.20] the value was 4.9 nM; for `C[C@H]1CN2CC[C@@H]1n1c(nc3cc(Cl)ccc31)O[C@H]1C[C@@H](C(=O)O)N(C1)c1nc(nc3c1oc1ccccc13)C(F)(F)CCCCCC2=O` [Example 1.12], 5.2 nM; for `C[C@H]1CN2CC[C@@H]1n1c(nc3cc(Cl)ccc31)O[C@H]1C[C@@H](C(=O)O)N(C1)c1nc(nc3c1oc1cc(F)ccc13)CCCCOCC2=O` [Example 1.09], 3.9 nM.
Compound `C[C@H]1CN2CC[C@@H]1n1c(nc3ccccc31)O[C@H]1C[C@@H](C(=O)O)N(C1)c1nc(nc3c1oc1cc(F)ccc13)C(F)(F)CCCCCC2=O` [Example 1.14] displayed an IC50 of 4.1 nM.
Still for that read-out and setting: for `C[C@H]1CN2CC[C@@H]1n1c(nc3ccccc31)O[C@H]1C[C@@H](C(=O)O)N(C1)c1nc(nc3c1oc1ccccc13)CCCCCCC2=O` (racemic) [Example 1.24] the value was 18 nM; for `O=C(O)[C@@H]1C[C@H]2CN1c1nc(nc3c1oc1ccccc13)OCCCCOC(=O)N1CCC(CC1)n1c(nc3ccccc31)O2` [Example 11.01], 10 nM.
